In general, EC50 refers to the concentration that produces a half-maximal response. As a reminder, the Ki is the dissociation constant of the complex between target and ligand, obtained from inhibition or displacement. By Emax is commonly meant the greatest response seen or fitted, relative to the assay's reference.

Four compounds from patent US20230265151A1, “GIP/GLP1 CO-AGONIST COMPOUNDS” (priority 2020, published 2023) can be followed below.

The structures appear in SMILES notation. Read-outs that look alike come from different tables or passages of the source.

In one assay the target is T1, hGCGR (Homo sapiens, UniProt P47871).
T1 construct: expressed in transfected cells
T1 sequence (P47871 26-477): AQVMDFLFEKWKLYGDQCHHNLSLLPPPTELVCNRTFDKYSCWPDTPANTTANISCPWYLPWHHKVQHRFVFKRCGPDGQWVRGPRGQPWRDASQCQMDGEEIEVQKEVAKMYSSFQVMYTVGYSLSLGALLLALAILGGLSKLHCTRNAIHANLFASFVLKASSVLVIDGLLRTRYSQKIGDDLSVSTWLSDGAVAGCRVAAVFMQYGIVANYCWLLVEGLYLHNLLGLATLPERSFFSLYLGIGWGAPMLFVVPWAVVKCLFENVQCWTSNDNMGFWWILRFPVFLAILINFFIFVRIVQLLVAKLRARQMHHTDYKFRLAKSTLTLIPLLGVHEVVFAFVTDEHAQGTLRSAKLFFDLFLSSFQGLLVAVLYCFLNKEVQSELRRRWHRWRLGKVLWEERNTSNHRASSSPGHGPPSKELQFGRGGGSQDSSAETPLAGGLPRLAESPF
Briefly: Functional cAMP formation (HTRF) in HEK-293 clonal cells expressing hGCGR, 0.1% bovine casein, without or with 1.0% human serum albumin. Format: cell-based. As to conditions: cAMP, 37° C., read-out: hGCGR EC50, nM (SEM, n). An outline of the steps:
(§1)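 Readings of the HTRF 665/620 nm ratio, which falls as cAMP rises, were converted to nM cAMP using a standard curve after 30 min peptide exposure at 37° C.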

For another assay, the target named is hGLP-1R (Homo sapiens, UniProt P43220). The experiment in a line: Functional cAMP formation (HTRF) in HEK-293 clonal cells expressing hGLP-1R, 0.1% bovine casein, without or with 1.0% human serum albumin. Format: cell-based. Also noted: expressed in transfected cells. The note with it: 37° C.; for EC50: cAMP, read-out: hGLP-1R EC50, nM (SEM, n). In short, it runs like this: as §1
hGLP-1R, sequence (P43220 24-463): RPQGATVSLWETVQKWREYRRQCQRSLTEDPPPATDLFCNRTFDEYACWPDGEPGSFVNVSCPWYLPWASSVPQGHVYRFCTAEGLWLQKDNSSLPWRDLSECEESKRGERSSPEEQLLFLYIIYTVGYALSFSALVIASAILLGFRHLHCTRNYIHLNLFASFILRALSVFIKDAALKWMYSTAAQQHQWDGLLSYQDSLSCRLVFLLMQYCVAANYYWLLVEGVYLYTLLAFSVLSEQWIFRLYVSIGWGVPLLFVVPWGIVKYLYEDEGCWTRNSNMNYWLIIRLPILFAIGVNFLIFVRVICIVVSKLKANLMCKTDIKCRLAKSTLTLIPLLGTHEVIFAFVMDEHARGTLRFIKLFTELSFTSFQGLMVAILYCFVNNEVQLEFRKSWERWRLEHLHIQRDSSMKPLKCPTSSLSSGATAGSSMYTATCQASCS
For orientation: cAMP levels reflect the balance of adenylyl cyclase and phosphodiesterase activity.

For assay [1], the target named is T2, human GLP-1 receptor (hGLP-1R) (Homo sapiens, UniProt P43220).
T2 construct: expressed in transfected cells; crude membranes
T2 sequence (P43220 24-463): as above
Briefly: [125I]-GLP-1 binding, SPA with membranes of HEK293 cells expressing hGLP-1R. As to conditions: human GLP-1R; geometric mean (SEM, n); read-out: Binding Affinity Ki, nM (SEM, n) hGLP-1R.

For the next assay, the target named is T3, hGIPR (Homo sapiens, UniProt P48546).
T3 construct: expressed in transfected cells
T3 sequence (P48546 22-466): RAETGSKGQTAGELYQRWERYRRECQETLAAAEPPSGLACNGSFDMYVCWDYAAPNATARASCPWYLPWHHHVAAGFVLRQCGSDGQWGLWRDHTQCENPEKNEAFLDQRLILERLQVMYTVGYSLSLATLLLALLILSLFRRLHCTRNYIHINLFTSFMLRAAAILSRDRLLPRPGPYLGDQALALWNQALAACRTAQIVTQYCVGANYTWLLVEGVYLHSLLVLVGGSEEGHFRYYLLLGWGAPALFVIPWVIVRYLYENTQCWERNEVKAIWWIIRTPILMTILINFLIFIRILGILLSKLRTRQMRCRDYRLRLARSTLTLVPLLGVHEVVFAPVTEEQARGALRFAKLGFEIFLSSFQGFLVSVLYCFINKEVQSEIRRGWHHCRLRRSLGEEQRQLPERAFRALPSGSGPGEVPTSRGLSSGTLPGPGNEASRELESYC
The experiment in a line: Functional cAMP formation (HTRF) in HEK-293 clonal cells expressing hGIPR, 0.1% bovine casein, without or with 1.0% human serum albumin. Format: cell-based. As to conditions: 37° C.; for Emax: HEK293, cAMP, percent of maximal response to GIP(1-42)NH2, read-out: hGIPR Emax, % ± SEM; for EC50: cAMP, read-out: hGIPR EC50, nM (SEM, n). In short, it runs like this:
as §1

In assay [2] the target is T4, human GIP receptor (hGIPR) (Homo sapiens, UniProt P48546).
T4 construct: expressed in transfected cells; crude membranes
T4 sequence (P48546 22-466): T3 sequence (P48546 22-466)
The experiment in a line: [125I]-GIP binding, SPA with membranes of CHO cells expressing hGIPR. As to conditions: human GIPR; geometric mean (SEM, n); read-out: Binding Affinity Ki, nM (SEM, n) hGIPR.

Where [3] appears, read: 0.1% bovine casein (no human serum albumin), geometric mean.
Where [4] appears, read: 0.1% bovine casein and 1.0% human serum albumin, geometric mean (SEM, n).
Where [5] appears, read: 0.1% bovine casein and 1.0% human serum albumin.

For `CCCCCCCCCCCC(=O)N[C@@H](CCC(=O)NCCOCCOCC(=O)NCCOCCOCC(=O)NCCOCCOCC(=O)NCCCC[C@H](NC(=O)[C@H](CCCN)NC(=O)[C@H](CC(=O)O)NC(=O)[C@H](CC(C)C)NC(=O)[C@](C)(CC(C)C)NC(=O)[C@@H](NC(=O)C(C)(C)NC(=O)[C@H](Cc1ccncc1)NC(=O)[C@H](CC(=O)O)NC(=O)[C@H](CO)NC(=O)[C@@H](NC(=O)[C@](C)(Cc1ccccc1F)NC(=O)[C@@H](NC(=O)CNC(=O)[C@H](CCC(=O)O)NC(=O)C(C)(C)NC(=O)[C@@H](N)Cc1ccc(O)cc1)[C@@H](C)O)[C@@H](C)O)[C@@H](C)CC)C(=O)N[C@@H](C)C(=O)N[C@@H](CCC(N)=O)C(=O)NC(C)(C)C(=O)N[C@@H](CCCCNC(=O)COCCOCCNC(=O)COCCOCCNC(=O)COCCOCCNC(=O)CC[C@H](NC(=O)CCCCCCCCCCC)C(=O)O)C(=O)N[C@@H](Cc1ccccc1)C(=O)N[C@H](C(=O)N[C@H](CCC(=O)O)C(=O)N[C@@](C)(Cc1ccc(O)cc1)C(=O)N[C@@H](CC(C)C)C(=O)N[C@H](C(=O)N[C@@H](CCCN)C(=O)NCC(=O)NCC(=O)N1CCC[C@H]1C(=O)N[C@@H](CO)C(=O)N[C@@H](CO)C(=O)NCC(=O)N[C@@H](C)C(=O)N1CCC[C@H]1C(=O)N1CCC[C@H]1C(=O)N1CCC[C@H]1C(=O)N[C@@H](CO)C(N)=O)[C@@H](C)CC)[C@@H](C)CC)C(=O)O` [Example 433], the EC50 at hGCGR (setting [3]) is greater than 9950 nM; on hGCGR (setting [4]), greater than 9950 nM; on hGLP-1R (setting [3]), 0.128 nM; at hGLP-1R (setting [4]), 2.63 nM; on hGIPR (setting [3]), 0.00972 nM. The inhibition constant Ki in assay [1] is 0.187 nM; in assay [2], 0.0175 nM. Further, the Emax was found to be 100% on hGIPR (setting [5]) and 94% at hGIPR (0.1% bovine casein, arithmetic mean).
For the compound `CCCCCCCCCCCC(=O)N[C@@H](CCC(=O)NCCOCCOCC(=O)NCCOCCOCC(=O)NCCOCCOCC(=O)NCCCC[C@H](NC(=O)[C@H](CO)NC(=O)[C@@H]1CCCN1C(=O)[C@@H]1CCCN1C(=O)[C@@H]1CCCN1C(=O)[C@H](C)NC(=O)CNC(=O)[C@H](CO)NC(=O)[C@H](CO)NC(=O)[C@@H]1CCCN1C(=O)CNC(=O)CNC(=O)[C@H](CCC(=O)O)NC(=O)[C@@H](NC(=O)[C@H](CC(C)C)NC(=O)[C@](C)(Cc1ccc(O)cc1)NC(=O)[C@@H](CCC(=O)O)NC(=O)[C@@H](NC(=O)[C@H](Cc1ccccc1)NC(=O)[C@H](CCC(=O)O)NC(=O)C(C)(C)NC(=O)[C@H](CCC(N)=O)NC(=O)[C@H](C)NC(=O)[C@H](CCCCNC(=O)COCCOCCNC(=O)COCCOCCNC(=O)COCCOCCNC(=O)CC[C@H](NC(=O)CCCCCCCCCCC)C(=O)O)NC(=O)[C@H](CCCN)NC(=O)[C@H](CC(=O)O)NC(=O)[C@H](CC(C)C)NC(=O)[C@](C)(CC(C)C)NC(=O)[C@@H](NC(=O)C(C)(C)NC(=O)[C@H](Cc1ccncc1)NC(=O)[C@H](CC(=O)O)NC(=O)[C@H](CO)NC(=O)[C@@H](NC(=O)[C@](C)(Cc1ccccc1F)NC(=O)[C@@H](NC(=O)CNC(=O)[C@H](CCC(=O)O)NC(=O)C(C)(C)NC(=O)[C@@H](N)Cc1ccc(O)cc1)[C@@H](C)O)[C@@H](C)O)[C@@H](C)CC)[C@@H](C)CC)[C@@H](C)CC)C(N)=O)C(=O)O` [Example 424], the EC50 at hGCGR (setting [3]) is greater than 9950 nM; on hGCGR (setting [4]) it was greater than 9950 nM; at hGLP-1R (setting [3]), 0.0427 nM; on hGLP-1R (setting [4]) it was 3.07 nM; on hGIPR (setting [3]), 0.00502 nM. In addition, the maximum response (Emax) on hGLP-1R (HEK293, cAMP, 0.1% bovine casein and 1.0% human serum albumin, percent of maximal response to GLP-1(7-36)NH2, read-out: hGLP-1R Emax, % ± SEM) was 98.1%; on hGIPR (setting [5]), 89.5%. For the same compound, the Ki amounted to 0.219 nM in assay [1] and 0.0206 nM in assay [2].
As for `CCCCCCCCCCCC(=O)N[C@@H](CCC(=O)NCCOCCOCC(=O)NCCOCCOCC(=O)NCCCC[C@H](NC(=O)[C@H](CCCN)NC(=O)[C@H](CC(=O)O)NC(=O)[C@H](CC(C)C)NC(=O)[C@](C)(CC(C)C)NC(=O)[C@@H](NC(=O)C(C)(C)NC(=O)[C@H](Cc1ccncc1)NC(=O)[C@H](CC(=O)O)NC(=O)[C@H](CO)NC(=O)[C@@H](NC(=O)[C@](C)(Cc1ccccc1F)NC(=O)[C@@H](NC(=O)CNC(=O)[C@H](CCC(=O)O)NC(=O)C(C)(C)NC(=O)[C@@H](N)Cc1ccc(O)cc1)[C@@H](C)O)[C@@H](C)O)[C@@H](C)CC)C(=O)N[C@@H](C)C(=O)N[C@@H](CCC(N)=O)C(=O)NC(C)(C)C(=O)N[C@@H](CCCN)C(=O)N[C@@H](Cc1ccccc1)C(=O)N[C@H](C(=O)N[C@H](CCC(=O)O)C(=O)N[C@@](C)(Cc1ccc(O)cc1)C(=O)N[C@@H](CC(C)C)C(=O)N[C@H](C(=O)N[C@@H](CCCCNC(=O)COCCOCCNC(=O)COCCOCCNC(=O)CC[C@H](NC(=O)CCCCCCCCCCC)C(=O)O)C(=O)NCC(=O)NCC(=O)N1CCC[C@H]1C(=O)N[C@@H](CO)C(=O)N[C@@H](CO)C(=O)NCC(=O)N[C@@H](C)C(=O)N1CCC[C@H]1C(=O)N1CCC[C@H]1C(=O)N1CCC[C@H]1C(=O)N[C@@H](CO)C(N)=O)[C@@H](C)CC)[C@@H](C)CC)C(=O)O` [Example 414], the EC50 at hGCGR (setting [3]) was greater than 9950 nM; on hGCGR (setting [4]), greater than 9950 nM; on hGLP-1R (setting [3]), 0.119 nM; at hGIPR (setting [3]) it was 0.00961 nM; at hGIPR (setting [4]), 0.274 nM. Moreover, the results for the Ki in assay [1] and in assay [2] were 0.194 nM and 0.0229 nM, respectively. The maximal response (Emax) at hGIPR (setting [5]) worked out at 92.2%.
As to `CCCCCCCCCCCC(=O)N[C@@H](CCC(=O)NCCOCCOCC(=O)NCCOCCOCC(=O)NCCOCCOCC(=O)NCCCC[C@H](NC(=O)[C@H](CCCN)NC(=O)[C@H](CC(=O)O)NC(=O)[C@H](CC(C)C)NC(=O)[C@](C)(CC(C)C)NC(=O)[C@@H](NC(=O)C(C)(C)NC(=O)[C@H](Cc1ccncc1)NC(=O)[C@H](CC(=O)O)NC(=O)[C@H](CO)NC(=O)[C@@H](NC(=O)[C@](C)(Cc1ccccc1F)NC(=O)[C@@H](NC(=O)CNC(=O)[C@H](CCC(=O)O)NC(=O)C(C)(C)NC(=O)[C@@H](N)Cc1ccc(O)cc1)[C@@H](C)O)[C@@H](C)O)[C@@H](C)CC)C(=O)N[C@@H](C)C(=O)N[C@@H](CCC(N)=O)C(=O)NC(C)(C)C(=O)N[C@@H](CCCCNC(=O)COCCOCCNC(=O)COCCOCCNC(=O)COCCOCCNC(=O)CC[C@H](NC(=O)CCCCCCCCCCC)C(=O)O)C(=O)N[C@@H](Cc1ccccc1)C(=O)N[C@H](C(=O)N[C@H](CCC(=O)O)C(=O)N[C@@](C)(Cc1ccc(O)cc1)C(=O)N[C@@H](CC(C)C)C(=O)N[C@H](C(=O)N[C@@H](CCC(=O)O)C(=O)NCC(=O)NCC(=O)N1CCC[C@H]1C(=O)N[C@@H](CO)C(=O)N[C@@H](CO)C(=O)NCC(=O)N[C@@H](C)C(=O)N1CCC[C@H]1C(=O)N1CCC[C@H]1C(=O)N1CCC[C@H]1C(=O)N[C@@H](CO)C(N)=O)[C@@H](C)CC)[C@@H](C)CC)C(=O)O` [Example 422], the EC50 is greater than 9950 nM on hGCGR (setting [3]), greater than 9950 nM at hGCGR (setting [4]), 0.0729 nM at hGLP-1R (setting [3]) and 0.00655 nM at hGIPR (setting [3]). Also, the inhibition constant (Ki) in assay [1] was 0.194 nM; in assay [2], 0.0218 nM. On hGIPR (setting [5]), the Emax turned out to be 97.5%.
